Experimental data: patent publication US10995073B2 (CANCER RESEARCH TECHNOLOGY LIMITED, priority 2014, dated 2021)

Target: Human Full Length PARG (Homo sapiens (Human), UniProt Q86W56)
Test: PARG assay (in vitro enzyme, TR-FRET)
Conditions: PARG biochemical activity; read-out: PARG_EC50_ENZYME
Method: PARG In vitro assays were conducted in a total volume of 15 ul in a standard 384 well format. 5 ul of Human Full Length PARG (Produced internally by Astra Zeneca), used at a final reaction concentration of […], was added to 5 ul of Ribosylated PARP substrate (also produced internally by Astra Zeneca) at final reaction concentration of 4.5 nM in assay buffer (50 mM Tris pH7.4, 0.1 mg/ml BSA, 3 mM EDTA, 0.4 mM EGTA, 1 mM DTT, 0.01% Tween 20, 50 mM KCl). The reaction was incubated at room temperature for 10 minutes and then 5 ul detection reagent was added. Detection Reagent consists of 42 nM MAb Anti-6HIS XL665 (CisBio: 61 HISXLB) and 2.25 nM Streptavidin Europium Cryptate (CisBio: 610SAKLB), both at 3× working stock concentrations (final concentrations of 14 nM and 0.75 nM respectively), in a detection buffer of 50 mM Tris pH7.4, BSA at 0.1 mg/ml and KF at 100 mM. Following incubation at room temperature for 60 minutes in the dark, TR-FRET signal was measured at Ex 340 and Em 665 and Em 620. A ratio was calculated as Em665/EM620x104 for each well and used to calculate percent inhibition for test compounds.

Sequence of Human Full Length PARG (Q86W56 whole entry): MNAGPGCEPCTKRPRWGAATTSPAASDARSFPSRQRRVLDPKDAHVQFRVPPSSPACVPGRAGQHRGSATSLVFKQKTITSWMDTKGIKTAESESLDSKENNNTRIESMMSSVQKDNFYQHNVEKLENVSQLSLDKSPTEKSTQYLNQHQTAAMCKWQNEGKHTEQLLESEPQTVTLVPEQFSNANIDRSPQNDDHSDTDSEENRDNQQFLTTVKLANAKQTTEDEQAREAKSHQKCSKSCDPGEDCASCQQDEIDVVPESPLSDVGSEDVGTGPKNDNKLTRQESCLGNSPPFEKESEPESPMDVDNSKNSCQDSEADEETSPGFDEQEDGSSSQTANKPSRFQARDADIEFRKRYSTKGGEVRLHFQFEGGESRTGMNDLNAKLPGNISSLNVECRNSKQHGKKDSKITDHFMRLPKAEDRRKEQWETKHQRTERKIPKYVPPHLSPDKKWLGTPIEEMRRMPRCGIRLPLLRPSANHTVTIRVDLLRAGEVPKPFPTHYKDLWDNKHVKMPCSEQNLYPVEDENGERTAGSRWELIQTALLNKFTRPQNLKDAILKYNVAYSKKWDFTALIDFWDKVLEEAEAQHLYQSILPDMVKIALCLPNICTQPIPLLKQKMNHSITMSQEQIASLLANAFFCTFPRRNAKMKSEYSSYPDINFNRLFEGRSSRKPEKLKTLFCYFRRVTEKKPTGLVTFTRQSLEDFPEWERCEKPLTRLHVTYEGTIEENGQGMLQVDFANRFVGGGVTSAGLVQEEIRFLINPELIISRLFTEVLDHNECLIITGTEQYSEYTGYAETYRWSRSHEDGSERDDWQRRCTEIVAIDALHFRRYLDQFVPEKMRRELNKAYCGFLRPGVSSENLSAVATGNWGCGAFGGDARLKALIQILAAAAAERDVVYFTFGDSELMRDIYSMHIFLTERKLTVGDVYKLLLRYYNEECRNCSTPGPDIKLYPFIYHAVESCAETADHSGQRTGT

| EC50 | Structure (SMILES) |
| --- | --- |
| 1.55 µM | Cn1c(=O)n(-c2nnc(N)s2)c2cc(S(=O)(=O)NC3(C)CC3)ccc21 [Example 81, 3-(5-Amino-1,3,4-thiadiazol-2-yl)-1-methyl-N-(1-methylcyclopropyl)-2-oxo-benzimidazole-5-sulfonamide] |
| 12.2 µM | Cc1nsc(-n2c(=O)n(C)c3ccc(S(=O)(=O)NC4(CF)CC4)cc32)n1 [Example 177] |
